From the CATMoS acute toxicity set (Mansouri et al. 2021)

Test: GHS categories as the set defines them, by LD50: 1 up to 5, 2 up to 50, 3 up to 300, 4 up to 2000, 5 above 2000 mg/kg
Conditions: rat; in vivo; po

Row | SMILES | GHS category
1 | CO/N=C(/C1=NOCCO1)c1ccccc1Oc1ncnc(Oc2ccccc2Cl)c1F | 5
2 | CCn1cc(C(=O)O)c(=O)c2cnc(N3CCCC3)nc21 | 5
3 | COc1ccccc1NC(=O)c1cc2ccccc2cc1O | 5
4 | Cc1cc(C(=O)NCCc2ccc(S(=O)(=O)NC(=O)NC3CCCCC3)cc2)no1 | 5
5 | NCC1(CC(=O)O)CCCCC1 | 5
6 | CC(=O)N(C)C(=O)Oc1cccc2c1OC(C)(C(C)(C)C)O2 (stereo unspecified) | 4
7 | CCCOC(=O)Cc1ccc(OCC(=O)N(CC)CC)c(OC)c1 | 5
8 | C#CCOc1ccc(CCNC(=O)C(OCC#C)c2ccc(Cl)cc2)cc1OC (stereo unspecified) | 5
9 | COc1cc2c(cc1OC)-c1c(C)c3ccc(OC)c(OC)c3c[n+]1CC2 | 4
10 | Cc1nc2ncnn2c(C)c1Cc1ccc(-c2ccccc2-c2nn[nH]n2)cc1 | 4
11 | CCCCC(CC)COC(=O)CCCCCCCC(=O)OCC(CC)CCCC (stereo unspecified) | 5
12 | CC(=O)OC1CCC2CCCCC2C1 (stereo unspecified) | 5
13 | c1cc2c(c(OCCN3CCCCC3)c1)OCCO2 | 5
14 | O=C(O)NN1C(CCCOc2ccc(F)cc2)C[C@H](O)[C@@H]2CCCC[C@H]21 (stereo partly specified) | 5
15 | O=C(Cl)CCCCCl | 4
16 | CCC(CO)(CO)C(=O)O | 5
17 | O=C1C=CC=CC1=CNc1ccccc1C(=O)O | 4
18 | O=C1OC(=O)c2ccc3c4ccc5c6c(ccc(c7ccc1c2c73)c64)C(=O)OC5=O | 5
19 | O=C1CCCCCCCCCCOCCCCO1 | 5
20 | C[C@H]1[C@H](NC(=O)C(=NOC(C)(C)C(=O)O)c2csc(N)n2)C(=O)N1S(=O)(=O)O | 5
21 | CCOC(=O)C(=O)Nc1cc(OCCOCCOC)ncn1 | 4
22 | Cc1cc2c(cc1S(N)(=O)=O)S(=O)(=O)CCC2 | 5
23 | CC1(C(=O)O)CCCCC1 | 4
24 | CC(C)S | 5

Row | SMILES | GHS category
25 | CCCCCCCCCCCCCOC(=O)c1ccccc1C(=O)OCCCCCCCCCCCCC | 5
26 | CN(C(=O)CNCP(=O)(O)O)S(C)(=O)=O | 2
27 | CC1C2Cc3ccc(O)cc3C1(C)CCN2CCCC(=O)c1ccc(F)cc1 (stereo unspecified) | 4
28 | ICC1CCC(CI)CC1 (stereo unspecified) | 5
29 | CCN(CCOC(C)=O)c1ccc(N=Nc2nc3ccc(Cl)cc3s2)cc1 | 5
30 | C=CC(=C)CCC=C(C)CCC=C(C)C=O | 5
31 | COc1ccc2c(c1)CCN(c1cccc(F)c1)C2c1cccc(F)c1 (stereo unspecified) | 4
32 | CCSP(=O)(SCC)SCC | 3
33 | C/C=C(\C)C(=O)OC(C)C | 5
34 | CCC(=O)OCCCc1ccccc1 | 5
35 | COc1cccc(OC)c1C(=O)NC(=O)Nc1c(F)cccc1F | 4
36 | CCN(C(=O)CCCSc1nnnn1C)c1ccccn1 | 4
37 | CC1=C(C/C=C(\C)CCC[C@H](C)CCC[C@H](C)CCCC(C)C)C(=O)c2ccccc2C1=O | 5
38 | CC(C)(c1ccc(OP(=O)(Oc2ccccc2)Oc2ccccc2)cc1)c1ccc(OP(=O)(Oc2ccccc2)Oc2ccccc2)cc1 | 5
39 | Cc1cc(O)cc(C)c1S(C)(=O)=O | 4
40 | CCN(CC)C(=O)C(C)Oc1cccc2ccccc12 (stereo unspecified) | 5
41 | Nc1cnn(CCO)c1N | 5
42 | CCCCCC(=Cc1ccccc1)C(OC)OC | 5
43 | CCCc1c(Cc2ccc(-c3ccccc3C(N)=O)cc2)c(=O)nc2[nH]ncn12 | 4
44 | CCN(CCCSc1nnnn1C)C(=O)C1CCCCC1 | 4
45 | O=C(O)c1cc(O)[nH]c(=O)c1 | 5
46 | CCN(CC)CCc1nc(-c2cccc(O)c2)no1 | 5
47 | CCCCCCCC1CCCC1=O (stereo unspecified) | 5
48 | c1cnn(-c2cc(-n3cccn3)ncn2)c1 | 5

Row | SMILES | GHS category
49 | CCCCCCC1CCCC1=O (stereo unspecified) | 5
50 | Fc1ccc(Oc2ccnc3cc(Cl)cc(Cl)c23)cc1 | 5
51 | O=C(O)c1ccccc1C(=O)c1ccc(-c2ccccc2)cc1 | 5
52 | CCCCOC(=O)C(=O)[C@H]1[C@H](C)C[C@H]2[C@@H]3C[C@H](F)C4=CC(=O)C=C[C@]4(C)[C@H]3[C@@H](O)C[C@@]21C | 5
53 | CN(c1ccccc1)S(=O)(=O)c1cc(O)c2c(N=Nc3ccc(NC(=O)CCl)cc3S(=O)(=O)O)c(N)ccc2c1 | 5
54 | CC=CCC1=C(C)CCC1 | 5
55 | O=C(O)Cc1nc(-c2ccc(F)cc2)oc1-c1ccsc1 | 5
56 | CN(C)CCCOc1nn(-c2cccc(C(F)(F)F)c2)c2ncccc12 | 4
57 | CC1=C(C(=O)O)N2C(=O)[C@@H](NC(=O)[C@H](N)C3=CCC=CC3)[C@H]2SC1 | 5
58 | CCOCOC1CCCCCCCCCCC1 | 5
59 | Cc1c(Cc2ccc(-c3ccccc3-c3nn[nH]n3)cc2)c(=O)nc2nc[nH]n12 | 4
60 | CC1(C)S[C@@H]2[C@H](NC(=O)COc3ccccc3)C(=O)N2[C@H]1C(=O)O | 4
61 | C=COCC1CCC(COC=C)CC1 (stereo unspecified) | 5
62 | CC1(C)Oc2cc(C(=O)c3ccccc3)ccc2NC1=O | 5
63 | C[Si](Cl)(Cl)C1CCCCC1 | 5
64 | CCCCCCCC/C=C\CCCCCCCC(=O)N(C)CC(=O)O | 5
65 | O=C(C=Cc1ccccc1)OCCCc1ccccc1 | 5
66 | CCOC(=O)C(SP(=S)(OC)OC)C(SP(=S)(OC)OC)C(=O)OCC (stereo unspecified) | 4
67 | CCCCCC(=O)OC1(C(C)=O)CCC2C3CCC4=CC(=O)CCC4C3CCC21C (stereo unspecified) | 5
68 | Cc1cc(O)c(C)c2c1OC(C)(CCCC(C)CCCC(C)CCCC(C)C)CC2 (racemic) | 5
69 | CC(C)CC(C)(C)C | 5
70 | C[C@@H]1CC[C@@]2(OC1)O[C@H]1[C@@H](O)[C@H]3[C@@H]4CC[C@H]5C[C@@H](O[C@@H]6O[C@H](CO)[C@H](O[C@@H]7O[C@H](CO)[C@@H](O)[C@H](O[C@@H]8OC[C@@H](O)[C@H](O)[C@H]8O)[C@H]7O[C@@H]7O[C@H](CO)[C@@H](O)[C@H](O[C@@H]8O[C@H](CO)[C@@H](O)[C@H](O)[C@H]8O)[C@H]7O)[C@H](O)[C@H]6O)[C@H](O)C[C@]5(C)[C@H]4CC[C@]3(C)[C@H]1[C@@H]2C | 3
71 | Brc1ccc(N/C(=N/C2CCCCC2)c2ccccc2)cc1 | 5
72 | CC12CCC(=O)NC1=CCC1C2CCC2(C)C(C(=O)O)CCC12 (stereo unspecified) | 5

Row | SMILES | GHS category
73 | CNC(=O)Oc1cc(C)c(S(C)(=O)=O)c(C)c1 | 4
74 | CCCCCCCC/C=C\CCCCCCCCCCCC(N)=O | 5
75 | CNC(=O)Oc1cccc2c1OCO2 | 3
76 | CCCCOc1ccc(-c2ccc(C#N)cc2)cc1 | 5
77 | CCCS(=O)(=O)Nc1ccc(F)c(C(=O)c2cn(C(=O)c3c(Cl)cccc3Cl)c3ncc(-c4ccc(Cl)cc4)cc23)c1F | 5
78 | Cc1ncc(CSSSCc2cnc(C)c(O)c2CO)c(CO)c1O | 5
79 | CNC(=O)C(=NNc1cccc(C)c1)C(C)=O | 5
80 | C=C(OCC)C1C(C)(C)CC(=O)CC1(C)C | 5
81 | O=C(OCCCc1ccccc1)c1ccccc1 | 5
82 | O=C1c2ccccc2C2=Nc3cccc4cccc(c34)N12 | 5
83 | CCCCCCCCCCN(C)CCCCCCCCCC | 4
84 | O=C(O)c1cc(=O)c2c(OCC(O)COc3cccc4oc(C(=O)O)cc(=O)c34)cccc2o1 | 5
85 | NP(N)(=O)Nc1ccccc1[N+](=O)[O-] | 5
86 | CO/N=C(/C(=O)N[C@@H]1C(=O)N2C(C(=O)O)=C(COC(C)=O)CS[C@H]12)c1csc(N)n1 | 5
87 | CCCOC(=O)c1sc(C(=O)OCCC)c(O)c1O | 4
88 | CS(=O)(=O)c1ccc([C@@H](O)[C@@H](CO)NC(=O)C(Cl)Cl)cc1 | 5
89 | O=S(=O)(O)c1cccc(N=Nc2ccc(N=Nc3ccc(Nc4ccccc4)c4c(S(=O)(=O)O)cccc34)c3ccccc23)c1 | 5
90 | O=C1OC(CBr)CC12CC(CBr)OC2=O (stereo unspecified) | 5
91 | FC(F)(F)c1cccc(-n2nc(OCCN3CCCCC3)c3cccnc32)c1 | 4
92 | CCOC(=O)C(Br)CC (stereo unspecified) | 4
93 | O=S(=O)(O)c1ccc(N2N=C(c3ccc(Cl)cc3)CC2c2ccccc2)cc1 (stereo unspecified) | 5
94 | COC1=C(C(=O)O)N2C(=O)[C@@H](NC(=O)[C@H](N)C3=CCC=CC3)[C@H]2SC1 | 5
95 | NC[C@H]1O[C@H](O[C@H]2[C@H](O)[C@@H](O[C@H]3O[C@H](CO)[C@@H](O)[C@H](N)[C@H]3O)[C@H](N)C[C@@H]2N)[C@H](N)C[C@@H]1O | 5
96 | CC(C)(Sc1cc(C(C)(C)C)c(O)c(C(C)(C)C)c1)Sc1cc(C(C)(C)C)c(O)c(C(C)(C)C)c1 | 5

Row | SMILES | GHS category
97 | Oc1ccc(C(O)CNCCCCCCNCC(O)c2ccc(O)c(O)c2)cc1O (stereo unspecified) | 5
98 | CO[Si](CCCCl)(OC)OC | 5
99 | CC(C)OC(=O)c1cc(Cl)ccc1OC(N)=O | 5
100 | CCCCC1C(=O)N(c2cccc(O)c2)N(c2cccc(O)c2)C1=O | 4
101 | CC(=O)c1ccc2cc(CC(=O)O)ccc2c1 | 5
102 | CS/C(=N\O)C(=O)N(C)C | 5
103 | CC1(C)COC(Cn2cncn2)(c2cc3ccccc3o2)OC1 | 4
104 | CC(C)CCCCCCCCCCCCCCCOC(=O)CCCCCCCCCCCCCCC(C)C | 5
105 | CN1CC(c2ccno2)CC2c3cccc4[nH]cc(c34)CC21 (stereo unspecified) | 4
106 | CNC(=O)C(=NNc1ccc(C)cc1)C(C)=O | 5
107 | CN1CCN(c2c(F)cc3c(=O)c(C(=O)O)cn(CCF)c3c2F)CC1 | 5
108 | CCCCCCCCCCCCCCCC | 5
109 | CCCc1nc2ccnn2c(CCC)c1Cc1ccc(-c2ccccc2-c2nn[nH]n2)cc1 | 4
110 | C=C[Si](C)(N(CC)C(C)=O)N(CC)C(C)=O | 4
111 | CC(C)OC(=O)C(C)(C)Oc1ccc(C(=O)c2ccc(Cl)cc2)cc1 | 5
112 | Nc1ccc2c(c1)C(=O)c1ccccc1C2=O | 5
113 | CC1(C)S[C@@H]2[C@H](NC(=O)C(N)c3ccccc3)C(=O)N2[C@H]1C(=O)OC1OC(=O)c2ccccc21 (stereo partly specified) | 4
114 | CNC(=O)Oc1cc(C)cc(C)c1C | 3
115 | CCCOC(=O)C(C(=O)OCCC)=C1SC2C(S1)N(C)CCN2C (stereo unspecified) | 4
116 | OC1CCOC1 (stereo unspecified) | 5
